The values that follow come from US20030119061A1, “Structure-based drug design methods for identifying D-Ala-D-Ala ligase inhibitors as antibacterial drugs” (priority 2001, published 2003).

Test [1] deals with T1, D-Ala-D-Ala ligase (Escherichia coli, UniProt P07862). Description: Stopped flow fluorescence quenching studies of nucleotide binding to ligase. To be noted: for Kd: partially closed complex, product of Kd1 and Kd2, read-out: final (overall) Kd. As for the experimental part: We have discovered a significant fluorescence quenching upon binding of ATP and ADP, which we have exploited to examine mechanistic features of ligase. We have carried out stopped flow studies to look at the binding of ATP and ADP to ligase. These studies were carried out at 4° C. We observe a single exponential fluorescent quenching which is completed in <20 ms. […] This confirms our previous hypothesis about ligase, namely that the enzyme undergoes conformational changes that are an important and integral part of its enzymatic mechanism. This enzyme appears to fall into the category of “induced fit”.
The enzyme undergoes a conformational change to form the partially closed complex EA*. […] For ADP the conformational change increases the affinity of the nucleotide seven-fold for the partially closed complex, with respect to the initial collision complex, leading to an overall Kd of 50 μM. […] To dissociate the ligand, the enzyme has to relax back to the open form. […] In some cases, it can be advantageous for the inhibitor to trigger a further conformational change, perhaps the closure of the omega loop of domain D, leading to a fully closed form of the enzyme.
Stopped flow studies have added to the understanding of the mechanism by which ligase binds ligands, and have confirmed previous suspicions about “induced fit” mechanism. Determining the affinity of high affinity inhibitors (low nM) will be difficult by equilibrium binding methods or steady state enzyme kinetics. Stopped flow studies may well be the only way that the affinity of high affinity inhibitors can be determined with any degree of confidence. The studies can be carried out, for example, using the methods described by Eccleston, J. F. “Stopped-flow Spectrophotometric Techniques” in Spectrophotometry and Spectrofluorimetry a Practical Approach, Ed. D. A. Harris & C. L. Bashford, IRL Press, 1987, p. 137-164.

For test [2], the target named is D-Ala-D-Ala ligase omega loop (D domain) (Escherichia coli, UniProt P07862). Nature of the test: Proteolysis (trypsin) assay of omega loop closure. Type of test: biochemical. From the text: (§1) We have developed an in vitro assay to look at the closure of the omega loop (i.e., the D domain). The closure of the omega loop is probed by proteolysis.
Test [3] concerns the target T1, D-Ala-D-Ala ligase. Description: Affinity for D-Ala-D-Ala ligase relative to ATP (method not given). Format: binding. Conditions: given in brackets after ATP.
Text: as §1

In test [4] the target is T1, D-Ala-D-Ala ligase. Description: D-Ala-D-Ala ligase IC50 determination (PK/LDH coupled assay). Format: biochemical. Conditions: control in 1× core buffer; read-out: value (IC50 or Ki) for D-Ala-D-Ala ligase inhibition. From the text:
Inhibition of D-Ala-D-Ala ligase can be assayed for using the pyruvate kinase/lactate dehydrogenase (PK/LDH) assay described in Example 2. In the bacterial cell wall synthesis process, the ligase catalyzes the conversion of ATP to ADP concurrent with the ligation of two D-alanine residues. PK then regenerates ATP from the ADP thus created simultaneously with the conversion of phosphopyruvate to pyruvate. LDH catalyzes the reduction of pyruvate to lactate by converting NADH to NAD^+. By monitoring the production rate of NAD^+, D-Ala-D-Ala ligase activity can be ascertained.
The purine derivatives of Example 1 were dissolved in dimethylsulfoxide (DMSO) at a concentration of 100 mM on the day of screening, using a vortex mixer if necessary for dissolution. The solutions were kept at room temperature until screening was completed.
A 10 mM NADH (Sigma) stock solution was prepared fresh on the day of screening by dissolving 32 μmol NADH in 3.2 ml double-distilled water. The NADH solution was kept on ice. […]
At t=18-19 minutes, the substrate solution was taken from 25° C. to a Spectromax® UV-vis spectrophotometer. At t=20 minutes, within a 30 second timeframe, 125 μl of substrate solution was added to each well of columns 1-4, and the absorbance at 340 nm was read. […]

Where [5] appears, read: together with a D-Ala site binding molecule (phosphinate, D-Ala-D-Ala or cycloserine).

A word on the Kd: it is a measure of binding affinity in units of concentration. As usually defined, the IC50 is the concentration needed to halve the response being measured.

With `Nc1ncnc2c1ncn2[C@@H]1O[C@H](COP(=O)(O)OP(=O)(O)O)[C@@H](O)[C@H]1O` [ADP], in test [1] (ADP vs ATP), the “affinity for D-Ala-D-Ala ligase relative to ATP” value is “three”. Also, in test [1] (stopped flow, 4° C.), the “increase in affinity by the conformational change (partially closed vs initial collision complex)” value was “seven”, the “net dissociation rate constant (k−2)” value is 72 s⁻¹ and the Kd stood at 50 µM. For the same compound, the “omega loop closure (protection from trypsin proteolysis)” value (“omega loop closure” below) in test [2] (setting [5]) is “stabilize the omega loop closure”.

In the case of `Nc1ncnc2c1ncn2[C@@H]1O[C@H](COP(=O)(O)OP(=O)(O)NP(=O)(O)O)[C@@H](O)[C@H]1O` [AMPPNP], the “omega loop closure” value in test [2] (setting [5]) is “does not support the omega loop closure”.

As to `Nc1ncnc2c1ncn2[C@@H]1O[C@H](COP(=O)(O)OP(=O)(O)OP(=O)(O)O)[C@@H](O)[C@H]1O` [ATP, adenosine triphosphate], in test [1] (stopped flow, 4° C.), the “increase in affinity by the conformational change (partially closed vs initial collision complex)” value was 3.2 fold. Also, the Kd in test [1] (stopped flow, 4° C.) stood at 157 µM; in test [3], 300 µM. The koff in test [1] (stopped flow, 4° C., read-out: net dissociation rate constant (k−2)) worked out at 126 s⁻¹. Besides, the “omega loop closure” value is recorded as “cannot close the omega loop” in test [2] (nucleotide alone, no D-Ala site binding molecule) and “stabilize the omega loop closure” in test [2] (setting [5]).

For the compound `Nc1ncnc2c1ncn2[C@@H]1O[C@H](COP(=O)(O)OP(=O)(O)OP(O)(O)=S)[C@@H](O)[C@H]1O` [ATPgS], the “omega loop closure” value in test [2] (setting [5]) was “stabilize the omega loop closure”.

For `N[C@@H]1CON=C1O` [Cycloserine, D-cycloserine], the IC50 in test [4] was ~150 µM.
